Measured values: patent US11999727B2 (Tango Therapeutics, Inc., priority 2020, dated 2024)
Read-outs that look alike come from different tables or passages of the source.

Legend:
[1] = test system: HAP1 MTAP-deleted cell line; test: SDMA in-cell western assay, HAP1 MTAP-deleted; assay type: cell-based; conditions: for IC50: Homo sapiens; for MTAP intact/deleted ratio: SDMA in-cell western
Description: Table 1 also indicates IC50 values in an MTAP-isogenic cell line pair for exemplary compounds in an SDMA in-cell western assay (columns 7-8). HAP1 MTAP-intact is a cell line in which endogenous levels of MTAP are expressed, and HAP1 MTAP-deleted is an MTAP-null cell line.

[2] = biological target: T1, PRMT5 (Homo sapiens, UniProt O14744); test: PRMT5 biochemical IC50 assay with no cofactor; conditions: PRMT5, no cofactor
T1 construct: purchased Viva (custom protein)
T1 sequence (O14744 whole entry): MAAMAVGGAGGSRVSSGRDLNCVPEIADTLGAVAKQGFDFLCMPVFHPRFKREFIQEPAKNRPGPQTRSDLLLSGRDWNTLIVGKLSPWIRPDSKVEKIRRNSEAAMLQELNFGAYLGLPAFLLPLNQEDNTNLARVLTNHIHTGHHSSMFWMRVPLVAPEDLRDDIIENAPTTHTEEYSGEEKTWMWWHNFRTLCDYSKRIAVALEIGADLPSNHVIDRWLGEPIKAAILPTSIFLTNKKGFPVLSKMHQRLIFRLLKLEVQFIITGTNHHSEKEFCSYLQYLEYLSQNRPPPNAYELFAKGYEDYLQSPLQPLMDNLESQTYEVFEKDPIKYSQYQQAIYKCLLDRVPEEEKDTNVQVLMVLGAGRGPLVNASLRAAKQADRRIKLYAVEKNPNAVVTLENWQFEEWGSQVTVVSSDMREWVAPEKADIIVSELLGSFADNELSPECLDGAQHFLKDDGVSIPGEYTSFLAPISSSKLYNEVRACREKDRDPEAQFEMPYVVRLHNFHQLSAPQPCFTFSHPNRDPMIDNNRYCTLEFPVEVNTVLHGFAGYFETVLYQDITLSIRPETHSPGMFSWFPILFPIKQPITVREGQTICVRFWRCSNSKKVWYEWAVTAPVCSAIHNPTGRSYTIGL
T1 sequence (Q9BQA1 whole entry partner): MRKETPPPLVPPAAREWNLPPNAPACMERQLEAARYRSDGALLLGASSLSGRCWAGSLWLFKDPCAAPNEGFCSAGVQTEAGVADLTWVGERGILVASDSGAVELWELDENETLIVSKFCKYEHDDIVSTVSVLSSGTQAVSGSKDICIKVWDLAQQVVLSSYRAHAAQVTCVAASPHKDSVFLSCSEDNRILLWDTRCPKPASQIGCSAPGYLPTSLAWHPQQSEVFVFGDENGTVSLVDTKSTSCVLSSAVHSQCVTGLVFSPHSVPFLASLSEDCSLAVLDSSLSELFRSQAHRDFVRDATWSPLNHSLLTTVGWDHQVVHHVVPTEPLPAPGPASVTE
Description: Table 1 indicates IC50 values (μM) against PRMT5 for exemplary compounds in the presence of SAM as cofactor, with no cofactor, and with MTA as cofactor, respectively (columns 4-6). […] Ki values can be calculated from the IC50 values as described in the Examples section. As detailed in the Examples section, for the assay performed in the presence of SAM, IC50=Ki×1.5 (Ki=IC50/1.5).

[3] = biological target: T1, PRMT5; test: PRMT5 biochemical IC50 assay with SAM as cofactor
[4] = test system: HAP1 MTAP-intact cell line; test: SDMA in-cell western assay, HAP1 MTAP-intact; assay type: cell-based; conditions: Homo sapiens
Method in brief: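 Compounds were tested in HAP1 cells differing only in MTAP status (endogenous expression versus null). Cellular SDMA levels were then measured by in-cell western, giving an IC50 in each background.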

[5] = test system: HAP1 MTAP-deleted cell line; test: Viability assay, MTAP-deleted cell line; assay type: cell-based; conditions: Homo sapiens
Description: Table 1 additionally indicates IC50 values in a viability assay for the MTAP-deleted cell line (column 10), indicating the effect of treatment with compound on cell survival.

[6] = biological target: T1, PRMT5; test: PRMT5 biochemical IC50 assay with MTA as cofactor
[7] = HAP1, SDMA in-cell western, HAP1 MTAP-deleted, read-out: HAP 1 MTAP deleted IC50
[8] = IC50 ratio HAP1 MTAP-intact / HAP1 MTAP-deleted
[9] = read-out: No Cofactor/ rel IC50
[10] = PRMT5, SAM as cofactor, read-out: SAM IC50
[11] = HAP1, SDMA in-cell western, HAP1 MTAP-intact, read-out: MTAP HAP1 intact IC50
[12] = HAP1, viability assay, MTAP-deleted cell line, read-out: HAP1 MTAP deleted viability
[13] = HAP1, SDMA in-cell western, HAP1 MTAP-deleted, read-out: HAP1 MTAP deleted IC50
[14] = PRMT5, MTA as cofactor, read-out: MTA IC50
[15] = HAP1, viability, HAP1 MTAP-deleted cell line, read-out: HAP1 MTAP deleted viability
[16] = IC50 ratio HAP1 MTAP-intact vs HAP1 MTAP-deleted

Row | Structure (SMILES) | IC50 [1, 7] | IC50 [3, 10] | IC50 [4, 11] | IC50 [6, 14] | MTAP intact/deleted ratio [1, 8] | IC50 [5, 15] | further results
1 | Cc1cc(NC(=O)C(=O)N2C[C@H](C)CC[C@@H]2C2CCNC(=O)C2)cnc1N (mixture of isomers) [Compound 159, N-(6-amino-5-methyl-3-pyridyl)-2-[(2S,5S)-5-methyl-2-(2-oxo-4-piperidyl)-1-piperidyl]-2-oxo-acetamide] | > 1000 nM | 50 to 500 nM | > 1000 nM |  | B (an IC50 ratio greater than or equal to 3 fold but lower than 10 fold) |  | IC50 [2, 9]: 50 to 500 nM; IC50 [5, 12]: > 10000 nM
2 | Cc1cc(NC(=O)C(=O)N2C[C@H](C)CC[C@H]2C2CCCN(C)C2)cnc1N (mixture of isomers) [Compound 832, N-(6-amino-5-methyl-3-pyridyl)-2-[(2R,5S)-5-methyl-2-(1-methyl-3-piperidyl)-1-piperidyl]-2-oxo-acetamide] |  | > 500 nM | > 1000 nM | 50 to 500 nM | C (an IC50 ratio of less than 3 fold) |  | IC50 [1, 13]: > 1000 nM; IC50 ([2]; read-out: No Cofactor/rel IC50): > 500 nM
3 | Cc1cc(NC(=O)C(=O)N2C[C@H](C)CC[C@H]2c2ccc(NC3COC3)cc2)cnc1N (racemic) [Compound 1048] | < 100 nM | 50 to 500 nM | 100 to 1000 nM | 50 to 500 nM | B (an IC50 ratio greater than or equal to 3 fold but lower than 10 fold) |  | IC50 ([2]; read-out: No Cofactor/rel IC50): 50 to 500 nM
4 | Cc1cc(NC(=O)C(=O)N2C[C@H](C)CC[C@H]2c2ccc(CC(F)(F)F)cc2)cnc1N (racemic) [Compound 1056] | 100 to 1000 nM | 50 to 500 nM | 100 to 1000 nM | < 50 nM | C (an IC50 ratio of less than 3 fold) |  | IC50 ([2]; read-out: No Cofactor/rel IC50): 50 to 500 nM
5 | CCc1cc(NC(=O)C(=O)N2C[C@@H](C)CC[C@@H]2c2ccc(N3CCN(C)CC3)c(Cl)c2)cnc1N (racemic) [Compound 1265, N-(6-Amino-5-ethyl-3-pyridyl)-2-oxo-2-[rac-(2R,5S)-2-[3-chloro-4-(4-methylpiperazin-1-yl)phenyl]-5-methyl-1-piperidyl]acetamide] | < 100 nM | 50 to 500 nM | 100 to 1000 nM | 50 to 500 nM | A (an IC50 ratio greater than or equal to 10 fold) | < 1000 nM | 
6 | Cc1cncc(NC(=O)C(=O)N2CCCC[C@H]2c2cccc(C)c2)c1 (single isomer, unassigned) [Compound 4] | > 1000 nM | > 500 nM | > 1000 nM | 50 to 500 nM | C (an IC50 ratio of less than 3 fold) |  | IC50 [2, 9]: > 500 nM
7 | Cc1cncc(NC(=O)C(=O)N2C[C@@H](C)CC[C@@H]2c2cccc(F)c2)c1 (single isomer, unassigned) [Compound 77] | > 1000 nM |  | > 1000 nM | > 500 nM | C (an IC50 ratio of less than 3 fold) |  | IC50 [2, 9]: > 500 nM; IC50 [5, 12]: > 10000 nM
8 | Cc1cc([C@@H]2CC[C@@H](C)CN2C(=O)C(=O)Nc2cncc(C(N)=O)c2)ccc1F (single isomer, unassigned) [Compound 307] |  | > 500 nM | > 1000 nM | > 500 nM | C (an IC50 ratio of less than 3 fold) |  | IC50 [1, 13]: > 1000 nM; IC50 ([2]; read-out: No Cofactor/rel IC50): > 500 nM
9 | C[C@@H]1CC[C@@H](c2ccc3c(c2)OCCN3)N(C(=O)C(=O)Nc2cncc(C(N)=O)c2)C1 (single isomer, unassigned) [Compound 605] | > 1000 nM | > 500 nM | > 1000 nM |  | B (an IC50 ratio greater than or equal to 3 fold but lower than 10 fold) |  | IC50 ([2]; read-out: No Cofactor/rel IC50): > 500 nM; IC50 ([5]; HAP1, viability IC50, MTAP-deleted cell line, read-out: HAP1 MTAP deleted viability): > 10000 nM
10 | CO[C@H]1C[C@H](c2ccc3scnc3c2)N(C(=O)C(=O)Nc2cncc(C(N)=O)c2)C[C@H]1C (single isomer, unassigned) [Compound 1221] |  | > 500 nM | > 1000 nM | 50 to 500 nM |  |  | IC50 [1, 13]: 100 to 1000 nM; MTAP intact/deleted ratio [1, 16]: A (an IC50 ratio greater than or equal to 10 fold); IC50 [5, 12]: 1000 to 10000 nM
11 | CCc1cc(NC(=O)C(=O)N2C[C@@H](C)CC[C@@H]2c2ccc3sc(C4(O)CCN(C)CC4)nc3c2)cnc1N [Compound 1107] |  |  |  |  |  |  | IC50 ([1]; HAP1, read-out: HAP1 MTAP deleted IC50): < 100 nM; MTAP intact/deleted ratio [1, 16]: B (an IC50 ratio greater than or equal to 3 fold but lower than 10 fold); IC50 ([3]; SAM IC50, PRMT5, SAM as cofactor): < 50 nM; IC50 ([4]; HAP1, read-out: MTAP HAP1 intact IC50): < 100 nM; IC50 ([5]; HAP1, read-out: HAP1 MTAP deleted viability): < 1000 nM; IC50 ([6]; MTA IC50, PRMT5, MTA as cofactor): < 50 nM
12 | COc1ncc(NC(=O)C(=O)N2C[C@@H](C)CC[C@@H]2c2cccc(N3CCN(C)CC3)c2)cc1C(N)=O [Compound 1277, 2-methoxy-5-(2-((2R,5S)-5-methyl-2-(3-(4-methylpiperazin-1-yl)phenyl)piperidin-1-yl)-2-oxoacetamido)nicotinamide] | < 100 nM | 50 to 500 nM | 100 to 1000 nM | < 50 nM | A (an IC50 ratio greater than or equal to 10 fold) | < 1000 nM | 

Further lines, with some results ahead:

Row | IC50 [1, 7] | IC50 [3, 10] | IC50 [4, 11] | IC50 [6, 14] | Structure (SMILES) | MTAP intact/deleted ratio [1, 8] | IC50 [5, 15] | further results
13 | < 100 nM | 50 to 500 nM | 100 to 1000 nM |  | CCc1cc(NC(=O)C(=O)N2C[C@@H](C)CC[C@@H]2c2cccc([C@H]3CCCN(C)C3)c2)cnc1N (single isomer, unassigned) [Compound 1285] | A (an IC50 ratio greater than or equal to 10 fold) | < 1000 nM | IC50 [2, 9]: < 50 nM
14 |  | 50 to 500 nM | 100 to 1000 nM | < 50 nM | CCc1cc(NC(=O)C(=O)N2C[C@@H](C)CC[C@@H]2c2cccc(Oc3cccnc3)c2)cnc1N [Compound 1180] |  |  | IC50 [1, 13]: < 100 nM; MTAP intact/deleted ratio [1, 16]: A (an IC50 ratio greater than or equal to 10 fold); IC50 [5, 12]: < 1000 nM
15 | < 100 nM | 50 to 500 nM | 100 to 1000 nM | < 50 nM | CCc1cc(NC(=O)C(=O)N2C[C@@H](C)CC[C@@H]2c2cccc(Oc3cc(C)nc(C)c3)c2)cnc1N [Compound 1297, N-(6-amino-5-ethylpyridin-3-yl)-2-((2R,5S)-2-(3-((2,6-dimethylpyridin-4-yl)oxy)phenyl)-5-methylpiperidin-1-yl)-2-oxoacetamide] |  | < 1000 nM | 
16 | < 100 nM | < 50 nM | 100 to 1000 nM | < 50 nM | CCc1cc(NC(=O)C(=O)N2C[C@@H](C)CC[C@@H]2c2cccc(C(F)(F)CCN(C)C)c2)cnc1N [Compound 1381, N-(6-amino-5-ethylpyridin-3-yl)-2-((2R,5S)-2-(3-(3-(dimethylamino)-1,1-difluoropropyl)phenyl)-5-methylpiperidin-1-yl)-2-oxoacetamide] | A (an IC50 ratio greater than or equal to 10 fold) | < 1000 nM | 
17 | < 100 nM | 50 to 500 nM | < 100 nM | < 50 nM | CCc1cc(NC(=O)C(=O)N2C[C@@H](C)CC[C@@H]2c2cccc(OCCCN(C)C)c2)cnc1N [Compound 1384, N-(6-amino-5-ethylpyridin-3-yl)-2-((2R,5S)-2-(3-(3-(dimethylamino)propoxy)phenyl)-5-methylpiperidin-1-yl)-2-oxoacetamide] | A (an IC50 ratio greater than or equal to 10 fold) | < 1000 nM | 
18 | < 100 nM | 50 to 500 nM | 100 to 1000 nM | < 50 nM | CCc1cc(NC(=O)C(=O)N2C[C@@H](C)CC[C@@H]2c2cccc(CCCN(C)C)c2)cnc1N [Compound 1393, N-(6-amino-5-ethylpyridin-3-yl)-2-((2R,5S)-2-(3-(3-(dimethylamino)propyl)phenyl)-5-methylpiperidin-1-yl)-2-oxoacetamide] | A (an IC50 ratio greater than or equal to 10 fold) | < 1000 nM | 
